Data from ChEMBL document CHEMBL1201862, “PubChem BioAssay data set” (2004).
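Following 48 hours of exposure in 96-well plates, responses at five concentrations were used to interpolate endpoints linearly. GI50: concentration for 50% inhibition of growth.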 Activity calls are given as the source filed them. Rule as the data show it: active = GI50 up to about 1.1 µM and inactive = higher.

Assays:
Assay in all cases: NCI-60 cell line screen, 48 h
CCRF-CEM = system: CCRF-CEM
HOP-62 = system: HOP-62
HOP-92 = system: HOP-92
IGROV-1 = system: IGROV-1
KM12 = system: KM12
MOLT-4 = system: MOLT-4
NCI-H226 = system: NCI-H226
NCI-H23 = system: NCI-H23
OVCAR-4 = system: OVCAR-4
PC-3 = system: PC-3
RPMI-8226 = system: RPMI-8226
RXF 393 = system: RXF 393
SF-268 = system: SF-268
SF-295 = system: SF-295
SK-MEL-2 = system: SK-MEL-2
SK-MEL-5 = system: SK-MEL-5
SR = system: SR
T47D = system: T47D
TK-10 = system: TK-10
UO-31 = system: UO-31

| Structure (SMILES) | GI50 (CCRF-CEM) | GI50 (HOP-62) | GI50 (HOP-92) | GI50 (IGROV-1) | GI50 (KM12) | GI50 (MOLT-4) | GI50 (NCI-H226) | GI50 (NCI-H23) | GI50 (OVCAR-4) | GI50 (PC-3) | GI50 (RPMI-8226) | GI50 (RXF 393) | GI50 (SF-268) | GI50 (SF-295) | GI50 (SK-MEL-2) | GI50 (SK-MEL-5) | GI50 (SR) | GI50 (T47D) | GI50 (TK-10) | GI50 (UO-31) |
| --- | --- | --- | --- | --- | --- | --- | --- | --- | --- | --- | --- | --- | --- | --- | --- | --- | --- | --- | --- | --- |
| CC(O)C1(CNc2cc(Cl)nc(N)n2)CC(CCc2ccccc2)C1 (stereo unspecified) | 17.6 µM (inactive) | 14.1 µM (inactive) | 12.2 µM (inactive) | 13.6 µM (inactive) | 14.5 µM (inactive) | 11.6 µM (inactive) | 14.7 µM (inactive) | 3.06 µM (inactive) | 10.2 µM (inactive) | 11.6 µM (inactive) | 11.6 µM (inactive) | 16.6 µM (inactive) | 14.9 µM (inactive) | 14.4 µM (inactive) | 17.2 µM (inactive) | 5.71 µM (inactive) | 6.15 µM (inactive) | 3.42 µM (inactive) | 16.1 µM (inactive) | 12.1 µM (inactive) |
| O=C1C(Cl)=C(N2CCN(c3ccccn3)CC2)C(=O)c2ncccc21 | 0.745 µM (active) | 11.9 µM (inactive) | 1.88 µM (inactive) | 2.64 µM (inactive) | 3.53 µM (inactive) | 1.38 µM (inactive) | 5.68 µM (inactive) | 1.89 µM (inactive) | 1.87 µM (inactive) | 2.8 µM (inactive) | 2 µM (inactive) | 2.17 µM (inactive) | 2.74 µM (inactive) | 5.69 µM (inactive) | 1.87 µM (inactive) | 2 µM (inactive) | 0.757 µM (active) | 1.81 µM (inactive) | 3.97 µM (inactive) | 1.77 µM (inactive) |
| C/C(=N\NC(=S)NC(C)C)c1nc2cccnc2[nH]1 | 2.88 µM (inactive) | 18 µM (inactive) | 39.9 µM (inactive) | 19.8 µM (inactive) | 65.8 µM (inactive) | 9.95 µM (inactive) | 9.25 µM (inactive) |  | 6.15 µM (inactive) | 27.9 µM (inactive) | > 100 µM (inactive) | 33.8 µM (inactive) | 14.8 µM (inactive) | 12 µM (inactive) | 18.7 µM (inactive) | 13.1 µM (inactive) | 11.7 µM (inactive) | 0.33 µM (active) | 21.3 µM (inactive) | 3.78 µM (inactive) |
| O=C(c1ccc(Cl)c(Cl)c1)N(Cc1cccnc1)C(=S)N(Cc1cccnc1)C(=O)c1ccc(Cl)c(Cl)c1 | 94 µM (inactive) | 27.4 µM (inactive) | 36.1 µM (inactive) |  | 28.1 µM (inactive) | 37.3 µM (inactive) | 31.8 µM (inactive) | 37.8 µM (inactive) | 25.8 µM (inactive) | 22.1 µM (inactive) | 5.5 µM (inactive) | 28.4 µM (inactive) | 36.1 µM (inactive) | 24.4 µM (inactive) | 25.1 µM (inactive) | 27.7 µM (inactive) | 17.5 µM (inactive) | 26.7 µM (inactive) | 29.9 µM (inactive) | 17.9 µM (inactive) |
| O=C(O)/C=C\C(=O)Nc1ccccn1 | > 100 µM (inactive) | > 100 µM (inactive) | > 100 µM (inactive) | > 100 µM (inactive) | > 100 µM (inactive) | > 100 µM (inactive) | > 100 µM (inactive) | > 100 µM (inactive) | > 100 µM (inactive) | > 100 µM (inactive) | > 100 µM (inactive) | > 100 µM (inactive) | > 100 µM (inactive) | > 100 µM (inactive) | > 100 µM (inactive) | > 100 µM (inactive) | > 100 µM (inactive) | > 100 µM (inactive) |  | > 100 µM (inactive) |
| Cc1c2c(n3c(nc4ccccc43)c1C#N)NCC2 | > 10 µM (inactive) | > 10 µM (inactive) | > 10 µM (inactive) | > 10 µM (inactive) | > 10 µM (inactive) | > 10 µM (inactive) | > 10 µM (inactive) | > 10 µM (inactive) | > 10 µM (inactive) | > 10 µM (inactive) | > 10 µM (inactive) | > 10 µM (inactive) | > 10 µM (inactive) | > 10 µM (inactive) |  | > 10 µM (inactive) | > 10 µM (inactive) | > 10 µM (inactive) | > 10 µM (inactive) | > 10 µM (inactive) |
| Cc1cc2c(O)c(c1)COCc1cc(C)cc(c1O)COCc1cc(C)cc(c1O)COC2 | 32.1 µM (inactive) | > 100 µM (inactive) | > 100 µM (inactive) |  | > 100 µM (inactive) | > 100 µM (inactive) | > 100 µM (inactive) | > 100 µM (inactive) | > 100 µM (inactive) | > 100 µM (inactive) | > 100 µM (inactive) | > 100 µM (inactive) | > 100 µM (inactive) | > 100 µM (inactive) | > 100 µM (inactive) |  | 91 µM (inactive) | > 100 µM (inactive) |  | > 100 µM (inactive) |
| O=c1[nH]c2ccc(Cl)cc2o1 | > 100 µM (inactive) | > 100 µM (inactive) | 17.5 µM (inactive) | > 100 µM (inactive) | > 100 µM (inactive) | > 100 µM (inactive) | > 100 µM (inactive) | > 100 µM (inactive) | > 100 µM (inactive) | > 100 µM (inactive) | > 100 µM (inactive) | > 100 µM (inactive) | > 100 µM (inactive) | > 100 µM (inactive) |  | > 100 µM (inactive) | > 100 µM (inactive) | > 100 µM (inactive) | > 100 µM (inactive) | > 100 µM (inactive) |
| C#C[C@]1(O)CC[C@H]2[C@@H]3CCC4=C/C(=N/OC(=O)c5cccc6cc7ccccc7nc56)CC[C@@H]4[C@H]3CC[C@@]21CC | 52.2 µM (inactive) | > 100 µM (inactive) | > 100 µM (inactive) | > 100 µM (inactive) | > 100 µM (inactive) | > 100 µM (inactive) | > 100 µM (inactive) | > 100 µM (inactive) | > 100 µM (inactive) | > 100 µM (inactive) | > 100 µM (inactive) | > 100 µM (inactive) | > 100 µM (inactive) |  | > 100 µM (inactive) | > 100 µM (inactive) | 44.4 µM (inactive) | 33.8 µM (inactive) |  |  |
| COC(=N)C12C(N)=NC(OC)(OC)C1(C#N)C21C(=O)N(c2ccccc2)N=C1C (stereo unspecified) | 36.2 µM (inactive) | > 100 µM (inactive) | > 100 µM (inactive) | > 100 µM (inactive) | > 100 µM (inactive) | > 100 µM (inactive) | > 100 µM (inactive) | > 100 µM (inactive) | > 100 µM (inactive) | > 100 µM (inactive) | > 100 µM (inactive) | > 100 µM (inactive) | > 100 µM (inactive) | > 100 µM (inactive) | > 100 µM (inactive) |  | 37.6 µM (inactive) | > 100 µM (inactive) |  | > 100 µM (inactive) |
| CCn1sc2ccccc2c1=O | 1.87 µM (inactive) | 14.7 µM (inactive) | 10.1 µM (inactive) | 6.73 µM (inactive) | 6.89 µM (inactive) | 3.78 µM (inactive) | 24.1 µM (inactive) | 13 µM (inactive) | 7.1 µM (inactive) | 14.3 µM (inactive) | 4.23 µM (inactive) | 4.81 µM (inactive) | 17.3 µM (inactive) | 29.1 µM (inactive) | 21.7 µM (inactive) | 9.84 µM (inactive) | 1.95 µM (inactive) | 7.93 µM (inactive) | 16.5 µM (inactive) |  |
